Measured values from patent US11707440B2 (priority 2017, dated 2023).
Like-named read-outs stand apart in the source and are kept apart here.

Tested on: subjects with MDD at imminent risk for suicide
[1] = TEAE leading to study discontinuation, double-blind phase, safety analysis set
[2] = adverse events, follow up phase, safety (FU) analysis set
[3] = double-blind phase, safety analysis set
[4] = serious adverse events, follow up phase, safety (FU) analysis set
[5] = treatment-emergent serious adverse events, double-blind phase, safety analysis set

CN[C@]1(c2ccccc2Cl)CCCCC1=O [Esketamine 84 mg]
Dizziness [1]: 1 (2.9%) no. subjects (%) | Dysgeusia [1]: 1 (2.9%) no. subjects (%) | Dyspnea [1]: 1 (2.9%) no. subjects (%) | Gastrointestinal disorders [1]: 1 (2.9%) no. subjects (%) | Nausea [1]: 1 (2.9%) no. subjects (%) | Nervous system disorders [1]: 2 (5.7%) no. subjects (%) | Panic attack [1]: 0 no. subjects (%) | Psychiatric disorders [1]: 2 (5.7%) no. subjects (%) | Respiratory, thoracic and mediastinal disorders [1]: 1 (2.9%) no. subjects (%) | Total no. subjects with TEAE leading to study discontinuation [1]: 5 (14.3%) no. subjects (%) | Ventricular extrasystoles [1]: 1 (2.9%) no. subjects (%) | Abdominal pain [2]: 1 (3.7%) no. subjects (%) | Abdominal tenderness [2]: 1 (3.7%) no. subjects (%) | Aphthous ulcer [2]: 0 no. subjects (%) | Back pain [2]: 1 (3.7%) no. subjects (%) | Bronchitis [2]: 0 no. subjects (%) | Cellulitis [2]: 0 no. subjects (%) | Cogwheel rigidity [2]: 1 (3.7%) no. subjects (%) | Contusion [2]: 1 (3.7%) no. subjects (%) | Depressed mood [2]: 0 no. subjects (%) | Depression [2]: 1 (3.7%) no. subjects (%) | Diarrhea [2]: 1 (3.7%) no. subjects (%) | Dizziness [2]: 1 (3.7%) no. subjects (%) | Drug hypersensitivity [2]: 0 no. subjects (%) | Dry mouth [2]: 2 (7.4%) no. subjects (%) | Dysgeusia [2]: 1 (3.7%) no. subjects (%) | Ear and labyrinth disorders [2]: 0 no. subjects (%) | Ear infection [2]: 1 (3.7%) no. subjects (%) | Epistaxis [2]: 1 (3.7%) no. subjects (%) | Flank pain [2]: 1 (3.7%) no. subjects (%) | Folliculitis [2]: 0 no. subjects (%) | Gastrointestinal disorders [2]: 6 (22.2%) no. subjects (%) | Headache [2]: 2 (7.4%) no. subjects (%) | Immune system disorders [2]: 0 no. subjects (%) | Infections and infestations [2]: 3 (11.1%) no. subjects (%) | Influenza [2]: 0 no. subjects (%) | Injury, poisoning and procedural complications [2]: 2 (7.4%) no. subjects (%) | Insomnia [2]: 3 (11.1%) no. subjects (%) | Intentional self-injury [2]: 1 (3.7%) no. subjects (%) | Loss of consciousness [2]: 1 (3.7%) no. subjects (%) | Meniere's disease [2]: 0 no. subjects (%) | Metabolism and nutrition disorders [2]: 0 no. subjects (%) | Migraine [2]: 1 (3.7%) no. subjects (%) | Musculoskeletal and connective tissue disorders [2]: 2 (7.4%) no. subjects (%) | Musculoskeletal chest pain [2]: 1 (3.7%) no. subjects (%) | Musculoskeletal pain [2]: 1 (3.7%) no. subjects (%) | Nasal congestion [2]: 1 (3.7%) no. subjects (%) | Nasopharyngitis [2]: 1 (3.7%) no. subjects (%) | Nausea [2]: 0 no. subjects (%) | Neck pain [2]: 1 (3.7%) no. subjects (%) | Nervous system disorders [2]: 6 (22.2%) no. subjects (%) | Night sweats [2]: 1 (3.7%) no. subjects (%) | Panic reaction [2]: 0 no. subjects (%) | Pelvic pain [2]: 1 (3.7%) no. subjects (%) | Pharyngitis [2]: 2 (7.4%) no. subjects (%) | Polydipsia [2]: 0 no. subjects (%) | Procedural pain [2]: 0 no. subjects (%) | Psychiatric disorders [2]: 5 (18.5%) no. subjects (%) | Rash [2]: 0 no. subjects (%) | Renal and urinary disorders [2]: 0 no. subjects (%) | Renal failure [2]: 0 no. subjects (%) | Reproductive system and breast disorders [2]: 1 (3.7%) no. subjects (%) | Respiratory, thoracic and mediastinal disorders [2]: 2 (7.4%) no. subjects (%) | Restlessness [2]: 1 (3.7%) no. subjects (%) | Road traffic accident [2]: 1 (3.7%) no. subjects (%) | Sedation [2]: 1 (3.7%) no. subjects (%) | Self-injurious ideation [2]: 0 no. subjects (%) | Sexual dysfunction [2]: 0 no. subjects (%) | Skin and subcutaneous tissue disorders [2]: 1 (3.7%) no. subjects (%) | Somnolence [2]: 0 no. subjects (%) | Suicidal ideation [2]: 1 (3.7%) no. subjects (%) | Suicide attempt [2]: 0 no. subjects (%) | Tooth impacted [2]: 0 no. subjects (%) | Toothache [2]: 0 no. subjects (%) | Total no. subjects with adverse events [2]: 13 (48.1%) no. subjects (%) | Tremor [2]: 2 (7.4%) no. subjects (%) | Upper respiratory tract infection [2]: 1 (3.7%) no. subjects (%) | Viral upper respiratory tract infection [2]: 0 no. subjects (%) | Vomiting [2]: 1 (3.7%) no. subjects (%) | Vulvovaginal mycotic infection [2]: 1 (3.7%) no. subjects (%) | 1 or more serious TEAE [3]: 4 (11.4%) no. subjects (%) | TEAE (total no. subjects with TEAE) [3]: 33 (94.3%) no. subjects (%) | TEAE leading to death [3]: 0 no. subjects (%) | TEAE leading to drug withdrawn [3]: 5 (14.3%) no. subjects (%) | Possibly related TEAE (double-blind phase, safety analysis set, relationship possible, probable, very likely): 29 (82.9%) no. subjects (%) | Cellulitis [4]: 0 no. subjects (%) | Infections and infestations [4]: 0 no. subjects (%) | Psychiatric disorders [4]: 1 (3.7%) no. subjects (%) | Suicidal ideation [4]: 1 (3.7%) no. subjects (%) | Suicide attempt [4]: 0 no. subjects (%) | Total no. subjects with a serious adverse event [4]: 1 (3.7%) no. subjects (%) | Agitation [5]: 1 (2.9%) no. subjects (%) | Depressive symptom [5]: 1 (2.9%) no. subjects (%) | Psychiatric disorders [5]: 4 (11.4%) no. subjects (%) | Suicidal ideation [5]: 2 (5.7%) no. subjects (%)
